This note sets out measurements from the NIST ThermoML archive (doi:10.1021/je500205z).

Structures are written as SMILES. Numbers after ± are expanded uncertainties.

The conditions of series [1]: Maximal bubble pressure.
Series [2] in a line: an = ratio of the nth substance listed. As to conditions: 293.15 K, Maximal bubble pressure.

For the compound `C=Cn1cc[n+](C(C)C(=O)OCC)c1.[Cl-]` (configuration not stated), the surface tension liquid-gas stood at 66.75 ± 0.77 mN/m in series [1] (293.15 K); 63.9 ± 0.74 mN/m in series [1] (298.15 K); 61.18 ± 0.71 mN/m in series [1] (303.15 K); 58.46 ± 0.68 mN/m in series [1] (308.15 K); 55.89 ± 0.65 mN/m in series [1] (313.15 K); 53.02 ± 0.62 mN/m in series [1] (318.15 K). Also, the surface tension liquid-gas in series [1] (323.15 K) amounted to 50.55 ± 0.59 mN/m; in series [1] (328.15 K) it was 48.14 ± 0.57 mN/m; in series [1] (333.15 K), 45.54 ± 0.54 mN/m.

For `C=C[n+]1ccn(CCCCCCCCCC)c1.[Br-]` [1-decyl-3-ethenylimidazolium bromide], the surface tension liquid-gas in series [1] (293.15 K) amounted to 53.48 ± 0.63 mN/m; in series [1] (298.15 K), 50.63 ± 0.6 mN/m; in series [1] (303.15 K) it was 47.76 ± 0.56 mN/m; in series [1] (308.15 K) it was 44.56 ± 0.53 mN/m; in series [1] (313.15 K) it was 41.8 ± 0.5 mN/m; in series [1] (318.15 K), 39.03 ± 0.47 mN/m. The results for the surface tension liquid-gas in series [1] (323.15 K), in series [1] (328.15 K) and in series [1] (333.15 K) were 36.2 ± 0.44 mN/m, 33.77 ± 0.41 mN/m and 32.04 ± 0.39 mN/m, respectively.

For the compound `C=C[n+]1ccn(CCCCCCCCCC)c1.[Br-]` [1-decyl-3-ethenylimidazolium bromide] + CC(C)=O, the surface tension liquid-gas in series [2] (a1 = 0.5403) turned out to be 23.39 ± 0.38 mN/m.

For the compound `C=C[n+]1ccn(CCCCCCCCCC)c1.[Br-]` [1-decyl-3-ethenylimidazolium bromide] + CCO, the surface tension liquid-gas in series [2] (a1 = 1.255) came to 22.27 ± 0.36 mN/m.

On to `C=C[n+]1ccn(CCCCCCCCCC)c1.[Br-]` [1-decyl-3-ethenylimidazolium bromide] + ClC(Cl)Cl, for which the surface tension liquid-gas in series [2] (a1 = 0.7667) amounted to 27 ± 0.43 mN/m.

With `C=C[n+]1ccn(CCCCCCCCCC)c1.[Br-]` [1-decyl-3-ethenylimidazolium bromide] + O, the surface tension liquid-gas in series [2] (a1 = 3.263) turned out to be 35.27 ± 0.37 mN/m.

On to `C=C[n+]1ccn(CCCCCCCCCC)c1.[Br-]` [1-decyl-3-ethenylimidazolium bromide] + c1ccccc1, for which the surface tension liquid-gas in series [2] (a1 = 0.1035) was determined as 29.08 ± 0.46 mN/m.

On to `C=Cn1cc[n+](CCCCCCCC)c1.[Br-]` [1-ethenyl-3-octylimidazolium bromide], for which the surface tension liquid-gas was 59.74 ± 0.7 mN/m in series [1] (293.15 K); 56.82 ± 0.66 mN/m in series [1] (298.15 K); 54.04 ± 0.63 mN/m in series [1] (303.15 K); 51.22 ± 0.6 mN/m in series [1] (308.15 K); 48.55 ± 0.57 mN/m in series [1] (313.15 K); 45.79 ± 0.54 mN/m in series [1] (318.15 K). Further, the surface tension liquid-gas in series [1] (323.15 K) is on record as 43.18 ± 0.51 mN/m; in series [1] (328.15 K), 40.6 ± 0.49 mN/m; in series [1] (333.15 K), 38.24 ± 0.46 mN/m.

For `C=Cn1cc[n+](CCCCCCCC)c1.[Br-]` [1-ethenyl-3-octylimidazolium bromide] + CC(C)=O, the surface tension liquid-gas in series [2] (a1 = 0.5788) amounted to 23.94 ± 0.39 mN/m.

As to `C=Cn1cc[n+](CCCCCCCC)c1.[Br-]` [1-ethenyl-3-octylimidazolium bromide] + CCO, in series [2] (a1 = 1.497), the surface tension liquid-gas stood at 23.07 ± 0.37 mN/m.

Turning to `C=Cn1cc[n+](CCCCCCCC)c1.[Br-]` [1-ethenyl-3-octylimidazolium bromide] + ClC(Cl)Cl, the surface tension liquid-gas in series [2] (a1 = 0.6921) came to 27.79 ± 0.44 mN/m.

Regarding `C=Cn1cc[n+](CCCCCCCC)c1.[Br-]` [1-ethenyl-3-octylimidazolium bromide] + O, in series [2] (a1 = 4.059), the surface tension liquid-gas is listed as 38.86 ± 0.4 mN/m.

On to `C=Cn1cc[n+](CCCCCCCC)c1.[Br-]` [1-ethenyl-3-octylimidazolium bromide] + c1ccccc1, for which, in series [2] (a1 = 0.08467), the surface tension liquid-gas is 29.32 ± 0.46 mN/m.

`C=Cn1cc[n+](CCCCC)c1.[Br-]` [1-ethenyl-3-pentylimidazolium bromide]: the surface tension liquid-gas is listed as 67.08 ± 0.78 mN/m in series [1] (303.15 K); 64.11 ± 0.74 mN/m in series [1] (308.15 K); 61.08 ± 0.71 mN/m in series [1] (313.15 K); 58.28 ± 0.68 mN/m in series [1] (318.15 K); 55.53 ± 0.65 mN/m in series [1] (323.15 K); 53.24 ± 0.62 mN/m in series [1] (328.15 K). In addition, the surface tension liquid-gas in series [1] (333.15 K) worked out at 50.59 ± 0.59 mN/m.

As to `C=Cn1cc[n+](CCCCCC)c1.[Br-]` [3-hexyl-1-vinyl-1H-imidazol-3-ium bromide], the surface tension liquid-gas in series [1] (293.15 K) is given as 62.29 ± 0.72 mN/m; in series [1] (298.15 K) it was 59.52 ± 0.69 mN/m; in series [1] (303.15 K), 56.81 ± 0.66 mN/m; in series [1] (308.15 K) it was 53.95 ± 0.63 mN/m; in series [1] (313.15 K), 51.15 ± 0.6 mN/m; in series [1] (318.15 K) it was 48.44 ± 0.57 mN/m. Moreover, the surface tension liquid-gas in series [1] (323.15 K) is given as 45.67 ± 0.54 mN/m; in series [1] (328.15 K), 43.01 ± 0.51 mN/m; in series [1] (333.15 K) it was 40.4 ± 0.48 mN/m.

Take `C=Cn1cc[n+](CCCCCC)c1.[Br-]` [3-hexyl-1-vinyl-1H-imidazol-3-ium bromide] + CC(C)=O: in series [2] (a1 = 0.6455), the surface tension liquid-gas stood at 24.3 ± 0.39 mN/m.

Turning to `C=Cn1cc[n+](CCCCCC)c1.[Br-]` [3-hexyl-1-vinyl-1H-imidazol-3-ium bromide] + CCO, the surface tension liquid-gas in series [2] (a1 = 1.744) was 25.16 ± 0.4 mN/m.

`C=Cn1cc[n+](CCCCCC)c1.[Br-]` [3-hexyl-1-vinyl-1H-imidazol-3-ium bromide] + ClC(Cl)Cl: in series [2] (a1 = 0.5682), the surface tension liquid-gas was found to be 27.94 ± 0.44 mN/m.

`C=Cn1cc[n+](CCCCCC)c1.[Br-]` [3-hexyl-1-vinyl-1H-imidazol-3-ium bromide] + O: in series [2] (a1 = 5.388), the surface tension liquid-gas turned out to be 46.87 ± 0.46 mN/m.

In the case of `C=Cn1cc[n+](CCCCCC)c1.[Br-]` [3-hexyl-1-vinyl-1H-imidazol-3-ium bromide] + c1ccccc1, in series [2] (a1 = 0.02207), the surface tension liquid-gas came out at 29.6 ± 0.46 mN/m.

Consider `CC(C)=O` [acetone], for which the surface tension liquid-gas in series [1] (293.15 K) is recorded as 23.7 ± 0.43 mN/m.

With `c1ccccc1` [benzene], in series [1] (293.15 K), the surface tension liquid-gas was 28.18 ± 0.5 mN/m.

Take `CCO` [ethanol]: the surface tension liquid-gas in series [1] (293.15 K) was 22.27 ± 0.41 mN/m.

Take `ClC(Cl)Cl` [trichloromethane]: the surface tension liquid-gas in series [1] (293.15 K) was 27.14 ± 0.48 mN/m.
